Measured values taken from patent publication US20160193148A1, “LIPOSOMAL FORMULATIONS FOR THE TREATMENT OF BACTERIAL INFECTIONS” (UNIVERSITY OF GEORGIA RESEARCH FOUNDATION, INC., priority 2013, published 2016).
Several values for one entry are separate records, joined by “and”; a condition that tells them apart may be missing. Equal values may be shown once. Read-outs that look alike come from different tables or passages of the source. Marks after values point to notes of the source that are not given here.

What was measured:
[1] = simulation, Burton et al. 2013, cited from earlier work
[2] = BAL cell gentamicin concentrations after single IV or nebulized dose in foals; details: BAL cells
Procedure: (§1) Eight healthy 5-7-week-old Quarter Horse foals were randomly assigned to one of 4 groups using a balanced Latin-square design. Foals were considered healthy on the basis of physical examinations, complete blood cell counts and plasma biochemical profiles. […] The liposome gentamicin formulation was nebulized using Nortev FLEXINEB. For each treatment, gentamicin was administered over a period of 15 minutes. There was a washout period of 7-14 days between each treatment.
(§2) For the BAL collection, foals were sedated with xylazine and butorphanol. Concentrations of gentamicin were measured in plasma and in bronchoalveolar cells using HPLC-MS.
(§3) Eight foals received a single IV or nebulized dose (6.6 mg/kg bwt) of FG^h or LG in a balanced Latin square design. Beginning at 5-7 weeks of age, every foal received each of the 4 possible drug-route combinations with a 14-day washout period between each administration. Intravenous FG and LG were diluted in 250 ml of sterile 0.9% saline and administered via a jugular catheter as a constant rate infusion over 15 min. Nebulized FG and LG were administered by inhalation over 15 minutes via a commercial equine nebulizer. To ensure equivalent rate of delivery, FG was diluted to the same volume as LG with sterile 0.9% saline. Particle size of nebulized LG was verified using laser diffraction. Blood samples for plasma separation were obtained from a catheter placed in the contralateral jugular vein prior to each drug administration, and at 5, 10, 20, 30, 45 minutes and 1, 1.5, 2, 3, 4, 6, 8, 12, 16, 24 and 48 hours after the end of the 15 minute IV infusion or nebulization period. Bronchoalveolar lavage (BAL) fluid was collected at 2, 4, 8, 24, and 48 hours. Foals were sedated with xylazine hydrochloride (0.5 mg/kg bwt IV) and butorphanol tartrate (0.07 mg/kg bwt IV) prior to collection of BAL fluid. Prior to analysis for gentamicin concentration, blood samples were centrifuged at 400×g for 10 minutes and the resultant plasma frozen at −80° C. until assayed.
A 10 mm diameter, 2.4 m BAL catheter^k was passed via nasal approach until wedged into a bronchus. The lavage solution consisted of 4 aliquots of 60 ml 0.9% saline solution infused and instantly aspirated. Immediately upon collection, the total volume of BAL fluid recovered was measured and a 3 ml aliquot saved in an EDTA tube from which total nucleated cell count was determined by use of a cell counter.^1 BAL fluid was immediately centrifuged at 400×g for 10 min. The BAL cells in the resultant pellet were washed, re-suspended in 500 μl of acetonitrile: 0.2% formic acid (1:1, v/v), vortexed, and frozen at −80° C. until assayed. Supernatant BAL fluid was also frozen at −80° C. until assayed. Before assaying, the cell pellet samples were thawed, vortexed vigorously and sonicated for 10 minutes to ensure complete cell lysis. The resulting suspension was centrifuged at 500×g for 10 minutes and the supernatant fluid was used to determine the intracellular concentrations of gentamicin.
(§4) Briefly, gentamicin was extracted from plasma (250 μl) and urine (500 μl) using protein precipitation with an equal volume of ice-cold 90:10 acetonitrile: 0.2% formic acid (v/v). Extracted samples were centrifuged (2° C. at 10,000×g for 10 min) twice. Two-hundred microliters of the supernatants were transferred to polypropylene inserts for injection. The supernatant derived from the lyzed BAL cell pellet was transferred to polypropylene inserts for direct injection without further processing. […] An aliquot of the resultant supernatant was then mixed with an equal volume of ice-cold acetonitrile, centrifuged (2° C. at 10,000×g for 10 minutes) and 200 μl was transferred to polypropylene inserts for injection. Calibration standards were prepared in drug-free foal plasma, BAL fluid or urine and then extracted as described above so that standard curves specific to each biologic matrix could be constructed.

[3] = tested on: R. equi isolates; details: Riesenberg et al. 2013; cited from earlier work
[4] = Plasma pharmacokinetics after single IV or nebulized dose in foals
Procedure: as §1, §2, §3
as §4, with “constructed. […] Analyte separation and LC-MS/MS measurement of gentamicin were performed exactly as described previously (Burton et al. (2013) Equine Vet J. 45, 507-511) except that BAL fluid samples, were introduced in the MS with a flow rate of 0.18 ml/minutes and a total run time of 8 minutes due to relatively low gentamicin concentration in those samples.” for “constructed.”
For each foal, plasma, PELF, and BAL cell concentration versus time data were analyzed using commercial software. Noncompartmental analysis was used for PELF and BAL cell data.

[5] = plasma, IV 6.6 mg/kg, 8 foals, Table 4
[6] = plasma, IV 6.6 mg/kg, 8 foals, listed as FG, 6.6 mg/kg

Substance: gentamicin sulfate [Free Gentamicin]
- predicted plasma concentration 1 hour after IV administration ([1]; at 4 weeks of age): 25.27 ± 9.52 µg/mL
- predicted plasma concentration 24 hours after administration ([1]; at 4 weeks of age): 0.20 ± 0.22 µg/mL
- predicted plasma concentration 1 hour after IV administration ([1]; at 12 weeks of age): 34.52 ± 14.11 µg/mL
- predicted plasma concentration 24 hours after administration ([1]; at 12 weeks of age): 0.26 ± 0.11 µg/mL
- AUC0-t ([2]; IV): 58.9 ± 41.5^a μg · h/ml
- C24 h ([2]; IV): 1500 ± 1230 ng/mL
- Tmax (median and range) ([2]; IV): 2 (2-8)^a h
- AUC0-24 ([2]; IV, Table 3): 58900 ± 41500 ng·h/mL
- C48 h ([2]; IV, Table 3): 0.5 ± 0.6 µg/mL
- Cmax ([2]; IV, Table 3): 3.0 ± 1.7 µg/mL
- C48 h ([2]; IV, Table 5): 0.47 ± 0.62^a μg/ml
- Cmax ([2]; IV, Table 5, listed as FG): 3.0±1.7 μg/ml and 2.98 ± 1.67^a μg/ml
- AUC0-24 ([2]; N (nebulized), Table 3): 37200 ± 18900 ng·h/mL
- C48 h ([2]; N (nebulized), Table 3): 0.3 ± 0.2 µg/mL
- Cmax ([2]; N (nebulized), Table 3): 1.5 ± 0.6 µg/mL
- AUC0-t ([2]; Neb): 37.2 ± 19.0^a μg · h/ml
- C24 h ([2]; Neb): 1010 ± 570 ng/mL
- Tmax (median and range) ([2]; Neb): 3 (2-48)^a h
- C48 h ([2]; Neb, Table 5): 0.32 ± 0.23^a μg/ml
- Cmax ([2]; Neb, Table 5, listed as FG): 1.5±0.6 μg/ml and 1.49 ± 0.57^a μg/ml
- MIC that inhibits at least 90% (MIC90) of R. equi isolates [3]: 0.5 µg/mL
- Plasma concentrations after nebulized administration ([4]; nebulized 6.6 mg/kg, at most time points): 570 ng/mL
- A (intercept of the distribution phase) ([4]; plasma, IV 6.6 mg/kg, 8 foals): 53.24 ± 25.83 µg/mL
- AUC0-t ([4]; plasma, IV 6.6 mg/kg, 8 foals): 96700 ± 63800 ng·h/mL
- AUC0-∞ ([4]; plasma, IV 6.6 mg/kg, 8 foals): 98400 ± 64300 ng·h/mL
- AUMC0-∞ ([4]; plasma, IV 6.6 mg/kg, 8 foals): 360.2 ± 364.0 μg · h^2/ml
- B (intercept of the elimination phase) ([4]; plasma, IV 6.6 mg/kg, 8 foals): 2.50 ± 1.50 µg/mL
- CL ([4]; plasma, IV 6.6 mg/kg, 8 foals): 1.42 ± 0.615 mL/min/kg
- MRT ([4]; plasma, IV 6.6 mg/kg, 8 foals): 3.18 ± 1.25 h
- t1/2α (distribution half-life) ([4]; plasma, IV 6.6 mg/kg, 8 foals): 0.97 ± 0.45
- α (rate constant of the distribution phase) ([4]; plasma, IV 6.6 mg/kg, 8 foals): 0.82 ± 0.28 h⁻¹
- β (rate constant of the elimination phase) ([4]; plasma, IV 6.6 mg/kg, 8 foals): 0.12 ± 0.04 h⁻¹
- C0.5 h [4, 5]: 71780 ± 92140 ng/mL
- C48 h [4, 5]: 90 ± 90 ng/mL
- t1/2β ([4]; plasma, IV 6.6 mg/kg, 8 foals, Table 4, listed as FG, 6.6 mg/kg): 6.2 ± 1.8 h and 6.20 ± 1.77 h
- C1 h [4, 6]: 32600 ± 25280 ng/mL
- C24 h [4, 6]: 250 ± 190 ng/mL
- C0.5 h ([4]; plasma, IV 6.6 mg/kg, Table 1): 71800 ± 92100 ng/mL
- C48 h ([4]; plasma, IV 6.6 mg/kg, Table 1): 100 ± 90 ng/mL
- t1/2β ([4]; plasma, IV 6.6 mg/kg, Table 1, 6.6 mg/kg): 6.2 ± 1.8 h
- t1/2β ([4]; plasma, IV 6.6 mg/kg, Table 1, listed as free gentamicin, 6.6 mg/kg): 6.2 ± 1.8 h
